Data published in patent publication US9694072B2, “Methods for diagnosing and treating neuroendocrine cancer” (Trustees of Dartmouth College, priority 2005, dated 2017).
Read-outs that look alike come from different tables or passages of the source.

Key:
[1] = test system: NCI H82 variant small-cell cancer cell xenografts; assay: NCI H82 xenografts treated with ifenprodil; assay type: in vivo, nu/nu mice
Method: Male nu/nu mice were injected subcutaneously with NCI H82 variant small-cell cancer cells (˜10^7 cells/mouse) representing recurrent disease, and tumors became obvious after 2-3 weeks, and commenced growing rapidly. Animals were divided into two groups.
In another set of experiments, NCI H82 tumors were pretreated with cyclophosphamide for three days (single dose of 75 mg/kg body weight) before a single daily dose of i.p. ifenprodil (2.5 mg/kg) commenced.

[2] = test system: NCI-H82 variant SCLC cells; assay: Cell growth/viability assay (Alamar Blue); assay type: cell-based, human; settings: for IC50: read-out: IC50, cell viability; for Cell viability reduced to: NCI-H82, 24, 48, and 72 hours incubation
Method: (§3) Cultures of NCI-H345, NCI-H146, DMS-53 cells (classical cell lines), and NCI-H82 cells (variant cell line) were treated with 0.05% trypsin, washed in phosphate buffered saline (PBS)/glycine and plated onto 96-well plates at 10^4 cells/well in medium for 24 hours to provide time for rectifying possible damage to membrane proteins from the trypsinization. […] Fluorescent readings were taken at periods representing 24, 48, and 72 hours of incubation with antagonist using a Synergy HT Multi-Detection Microplate Reader and excitation/emission wavelengths of 530 nm and 590 nm. Cell viability was evaluated as % vehicle control at the corresponding incubation time.

[3] = test system: NCI-H345 classical SCLC cells; assay: Cell growth/viability assay (Alamar Blue)
Method: Cultures of NCI-H345, NCI-H146, DMS-53 cells (classical cell lines), and NCI-H82 cells (variant cell line) were treated with 0.05% trypsin, washed in phosphate buffered saline (PBS)/glycine and plated onto 96-well plates at 10^4 cells/well in medium for 24 hours to provide time for rectifying possible damage to membrane proteins from the trypsinization. The wells were washed and incubated with PBS/glycine containing albumin (1.25 mg/mL) in the presence or absence of different concentrations (25 μM-800 μM) of either the NMDAR 1 antagonists, Memantine or MK-801; or the NMDAR2B antagonists Ifenprodil and Ro 25-6981 (binders to the polyamine site), or the NMDAR2B antagonists L-701,252 and L-701,324 (binders to the glycine site), or vehicle; and Alamar Blue (1:10 dilution following manufacturer's recommendation). Fluorescent readings were taken at periods representing 24, 48, and 72 hours of incubation with antagonist using a Synergy HT Multi-Detection Microplate Reader and excitation/emission wavelengths of 530 nm and 590 nm. Cell viability was evaluated as % vehicle control at the corresponding incubation time.
This peptide domain is represented in that portion of the mRNA message sequenced by RT-PCR. For studies on cell proliferation, the IgGs of this antiserum were first isolated by precipitation with 50% saturated ammonium sulfate, and antibodies purified from these immunoglobulins by affinity chromatography using a column containing the peptide component of the above antigen coupled to SEPHAROSE (Friedmann, et al. (1994) supra; Keegan, et al. (2002) supra).

DMS-53 cells = assay: Cell growth/viability assay (Alamar Blue); assay type: cell-based, human; settings: for effect on cell viability (in words): DMS-53, 48 hours, concentration range used
Method: as §3

[4] = test system: human LA-N-2 neuroblastoma cells; settings: cited from earlier work
[5] = test system: human LA-N2 neuroblastoma cells; settings: in the presence of glycine; cited from earlier work
NCI-H146 cells = assay: Cell growth/viability assay (Alamar Blue); assay type: cell-based, human
Method: as §3

[6] = test system: MCF-7 breast cancer cells; assay: Alamar Blue growth/proliferation study; assay type: cell-based, human; settings: for effect on cell growth/proliferation (in words): MCF-7, in the presence of glycine over 24 hours
LAN2 neuroblastoma cells = assay: Alamar Blue growth study; assay type: cell-based, human; settings: LAN2, in the presence of glycine over 24 hours
Method: (§1) Results represent triplicate studies performed with Alamar Blue on LAN2 neuroblastoma, MCF-7 breast cancer, and SKBr3 breast cancer cells examining the growth influence of 1 mM glutamate in the presence of glycine over 24 hours.
(§2) Results represent triplicate studies performed with Alamar Blue on LAN2 neuroblastoma, MCF-7 breast cancer, and SKBr3 breast cancer cells examining the growth influence of 100 mM Mg^++ in the presence of glycine over 24 hours.

[7] = test system: SKBr3 breast cancer cells; assay: Alamar Blue growth/proliferation study; assay type: cell-based, human; settings: for effect on cell growth/proliferation (in words): SKBr3, in the presence of glycine over 24 hours
Method: as §1, §2

[8] = 2.5 mg/kg once daily intraperitoneally
[9] = Homo sapiens, NCI-H82, 48 and 72 hours of incubation, Alamar Blue (figure legend)
[10] = Homo sapiens, NCI-H82, at 48 hours
[11] = Homo sapiens, NCI-H345, 48 h, read-out: IC50, cell viability
[12] = Homo sapiens, NCI-H345, read-out: IC50, cell viability

CC(C(O)c1ccc(O)cc1)N1CCC(Cc2ccccc2)CC1 (centres unmarked) [Ifenprodil]
time tumors maintained sizes of less than their original size [1, 8]: ~10 days | tumor size by 2 weeks of treatment [1, 8]: < 2 times their original size | tumors first shrank to [1, 8]: ~80 % of their original size | tumor growth vs saline-treated control mice (in words) ([1]; ifenprodil alone): inhibits the growth | body weight compared to saline-treated animals ([1]; over 8 days of drug treatment): no change in body weight | IC50 [2, 9]: 150 to 200 µM | IC50 [2, 10]: ~150 µM | Cell viability reduced to [2]: about 10 % of control | Cell viability reduced to [3]: about 10 % of control | IC50 [3, 11]: ~150 µM | IC50 [3, 12]: 150 to 200 µM | effect on cell viability (in words) (DMS-53 cells): smaller decreases

O=c1[nH]c2cc(Cl)ccc2c(O)c1-c1cccc(Oc2ccccc2)c1 [L-701,324]
increase in cell viability to ([2]; NCI-H82, at 48 hours): approximately 120 % of control | increase in cell viability to ([3]; NCI-H345, at 48 hours): approximately 140 % of control

NC(=O)c1ccccc1C(=O)N[C@@H](CCC(=O)O)C(=O)O [NPG, N-phthalamoyl-L-glutamic acid]
Cell cytotoxicity increased ([4]; incubation at 0.1 mM): 28% | Cell cytotoxicity increased ([4]; incubation at 1 mM): 46% | inward sodium current increased [5]: 1.5 ×

CC(C(O)c1ccc(O)cc1)N1CCC(Cc2ccccc2)CC1 (centres unmarked) [Ro 25-6981]
IC50 ([2]; NCI-H82, at 48 hours): ~200 µM | IC50 ([3]; read-out: IC50, cell viability, NCI-H345, at 48 hours): ~200 µM | effect on cell viability (in words) (DMS-53 cells; listed as Ro 25-698): no clear effects | effect on cell viability (in words) (NCI-H146 cells; NCI-H146, 48 hours, concentration range used): no clear effects

N[C@@H](CCC(=O)O)C(=O)O [glutamate, L-glutamic acid]
effect on cell growth/proliferation (in words) [6]: increased proliferation | effect on cell growth/proliferation (in words) (LAN2 neuroblastoma cells): decreased cell growth | effect on cell growth/proliferation (in words) [7]: increased proliferation | Cell cytotoxicity increased ([4]; incubation at 1 mM): 27% | Cell cytotoxicity increased ([4]; incubation at 10 mM): 37% | inward sodium current increased [5]: 1.5 ×

[Mg+2] [magnesium]
effect on cell growth/proliferation (in words) [6]: significantly inhibited proliferation | effect on cell growth/proliferation (in words) (LAN2 neuroblastoma cells): significantly inhibited proliferation | effect on cell growth/proliferation (in words) [7]: significantly inhibited proliferation

CC12CC3CC(C)(C1)CC(N)(C3)C2 [memantine]
Proliferation of MCF-7 Cells Percent Fluorescence Compared to Control ([6]; 100 μM, 24 Hours): 92.86 ± 6.08% | Proliferation of MCF-7 Cells Percent Fluorescence Compared to Control ([6]; 100 μM, 48 Hours): 89.98 ± 5.30% | Proliferation of MCF-7 Cells Percent Fluorescence Compared to Control ([6]; 100 μM, 72 Hours): 88.48 ± 4.02% | Proliferation of MCF-7 Cells Percent Fluorescence Compared to Control ([6]; 200 μM, 24 Hours): 73.51 ± 5.64% | Proliferation of MCF-7 Cells Percent Fluorescence Compared to Control ([6]; 200 μM, 48 Hours): 49.78 ± 6.85% | Proliferation of MCF-7 Cells Percent Fluorescence Compared to Control ([6]; 200 μM, 72 Hours): 46.62 ± 7.04% | Proliferation of MCF-7 Cells Percent Fluorescence Compared to Control ([6]; 300 μM, 24 Hours): 48.81 ± 5.18% | Proliferation of MCF-7 Cells Percent Fluorescence Compared to Control ([6]; 300 μM, 48 Hours): 22.33 ± 5.21% | Proliferation of MCF-7 Cells Percent Fluorescence Compared to Control ([6]; 300 μM, 72 Hours): 20.02 ± 4.97% | Proliferation of MCF-7 Cells Percent Fluorescence Compared to Control ([6]; 400 μM, 24 Hours): 39.62 ± 5.21% | Proliferation of MCF-7 Cells Percent Fluorescence Compared to Control ([6]; 400 μM, 48 Hours): 15.79 ± 4.79% | Proliferation of MCF-7 Cells Percent Fluorescence Compared to Control ([6]; 400 μM, 72 Hours): 14.38 ± 3.92% | Proliferation of MCF-7 Cells Percent Fluorescence Compared to Control ([6]; 500 μM, 24 Hours): 38.40 ± 2.98% | Proliferation of MCF-7 Cells Percent Fluorescence Compared to Control ([6]; 500 μM, 48 Hours): 14.60 ± 3.21% | Proliferation of MCF-7 Cells Percent Fluorescence Compared to Control ([6]; 500 μM, 72 Hours): 13.40 ± 3.29% | Proliferation of MCF-7 Cells Percent Fluorescence Compared to Control ([6]; 600 μM, 24 Hours): 39.22 ± 4.13% | Proliferation of MCF-7 Cells Percent Fluorescence Compared to Control ([6]; 600 μM, 48 Hours): 15.10 ± 7.28% | Proliferation of MCF-7 Cells Percent Fluorescence Compared to Control ([6]; 600 μM, 72 Hours): 13.66 ± 6.62% | Proliferation of MCF-7 Cells Percent Fluorescence Compared to Control ([6]; 700 μM, 24 Hours): 32.80 ± 2.19% | Proliferation of MCF-7 Cells Percent Fluorescence Compared to Control ([6]; 700 μM, 48 Hours): 12.51 ± 2.35% | Proliferation of MCF-7 Cells Percent Fluorescence Compared to Control ([6]; 700 μM, 72 Hours): 11.89 ± 2.62% | Proliferation of MCF-7 Cells Percent Fluorescence Compared to Control ([6]; 800 μM, 24 Hours): 32.82 ± 2.44% | Proliferation of MCF-7 Cells Percent Fluorescence Compared to Control ([6]; 800 μM, 48 Hours): 12.34 ± 2.01% | Proliferation of MCF-7 Cells Percent Fluorescence Compared to Control ([6]; 800 μM, 72 Hours): 11.82 ± 2.25% | Proliferation of MCF-7 Cells Percent Fluorescence Compared to Control ([6]; 900 μM, 24 Hours): 32.23 ± 2.13% | Proliferation of MCF-7 Cells Percent Fluorescence Compared to Control ([6]; 900 μM, 48 Hours): 12.03 ± 2.15% | Proliferation of MCF-7 Cells Percent Fluorescence Compared to Control ([6]; 900 μM, 72 Hours): 11.57 ± 2.41% | reduce proliferation by ([6]; MCF-7, 0.3 mM, 48 and 72 hours): about 80% | effect on proliferation (in words) ([6]; MCF-7, NMDAR1 antagonist treatment): decreased the proliferation | IC50 [2, 9]: 80 to 100 µM | IC50 [2, 10]: 80 to 130 µM | Cell viability reduced to [2]: about 10 % of control | effect on proliferation (in words) ([7]; SKBr3, NMDAR1 antagonist treatment): decreased the proliferation | Cell viability reduced to [3]: about 10 % of control | IC50 [3, 11]: 80 to 130 µM | IC50 [3, 12]: 80 to 100 µM | IC50 (DMS-53 cells; Homo sapiens, DMS-53, at 48 hours, read-out: IC50, cell viability): 800 µM | IC50 (NCI-H146 cells; Homo sapiens, NCI-H146, at 48 hours, read-out: IC50, cell viability): 400 µM
